In patent US6395740B1, “Calcitonin mimetics” (ZymoGenetics, Inc., priority 1997, dated 2002):

Key:
[1] = Induction of hypocalcemia in rats; assay type: in vivo; settings: weanling male rats, tail vein, 0.5, 2.5, 5, 50 and 100 ng/rat, one hour
Procedure: This assay is based on the in vivo acute effect of calcitonin on osteoclasts, which causes rapid retraction of osteoclass from bone surface (typically within 30 minutes) and which results in decreased bone resorption. See Mills, et al., in Endocrinology 1971—Proceedings of the Third International Symposium, Taylor (ed), Heinemann Medical, London, pp. 79-88 (1972) and Singer, et al., Clin. Endocrinol. 5(Supp):333s-340s (1976); the disclosures of which are incorporated herein by reference. The assay method was modified from the method described by Sturtridge and Kumar, Lancet 545:725-6, 1968, the disclosure of which is incorporated herein by reference.
For the assay of hypocalcemic activity, weanling male Holtzman Sprague-Dawley rats (22 days old) are infused with vehicle (PBS with 1 mM HCl and 0.1% BSA), calcitonin or calcitonin mimetics through the tail vein. One hour later, blood samples are collected by orbital sinus puncture to determine serum levels of calcium. A decrease in serum calcium indicates a hypocalcemic response. The hypocalcemic response is dose-dependent as determined using salmon calcitonin (0.5, 2.5, 5, 50 and 100 ng/rat) in this model.

[2] = test system: PTH-induced bone resorption in mouse calvaria; assay: Calvarial assay to determine calcitonin escape; assay type: cell-based; settings: for visual observation of the calvaria (resorption): final time point (98 hours)
Procedure: Calvaria from 4-day old neonatal CD-1 mice (pregnant mice received from Charles River Laboratories) were trimmed with fine-tipped scissors to leave the parietal regions, including the sagittal suture. These trimmed bones were placed singly per well into 6-well culture cluster plates (Costar) with 1 mL/well of growth medium, Basel Medium (Eagle's with Earle's salts (GIBCO BRL, Gaithersburg, Md.)) containing 4.5 g/L glucose, 0.29 mg/mL L-glutamine, 1 mM sodium pyruvate, 15% heat-inactivated horse serum, antibiotics (penicillin-G 50 μg/mL, streptomycin 50 μg/mL, and neomycin 100 μg/mL) and containing 5 nM parathyroid hormone (PTH) 1-34 (Sigma), and rocked gently (RedRocker™) at 37° C. in a 5% CO2 humidified incubator for 17.5 hours preincubation. The concentration of PTH was chosen to insure maximum resorption. Calvaria designated as controls were pre-incubated in media without PTH.
Following preincubation, medium was removed and replaced with 1 mL/well of growth medium, as above, containing 20 or 30 μg/mL of the calcitonin mimetic 850-0231 in DMSO (final assay concentration of DMSO less than or equal to 1%), and compared with human calcitonin (hCT) tested at 0.5, 1.0, 5.0, […] All control wells contained a final assay concentration of DMSO equal to that present in the calcitonin mimetic treated wells.
Five bones were included in each sample group. Bones were incubated for a total of 98 hours. Time points were taken at 4, 8, 11, 24, 50.5, 72.5 and 98 hours. At each time point the media containing PTH was removed and fresh dilutions of compound in media were added to the calvaria. After the media was removed, total calcium measurements were made using a Nova 7/7+7 Electrolyte Analyzed (Nova Biomedical) according to the manufacturer's specifications. Induction of bone resorption by PTH is seen as an increase in the concentration of calcium in the growth medium due to degradation of the bone matrix.
A second calvaria bone resorption/escape assay was performed as described above with time points at 4, 8, 12, 16, 24, 49 and 73 hours. […] Histology was done on the PTH-treated and the 30 μg/mL calcitonin mimetic-treated calvaria.
A third calvaria bone resorption/escape assay was performed as described above with the following modifications. The calcitonin mimetic was tested at 5, 10 and 20 μg/mL. PTH was used at 10 nM to insure maximal resorption, hCT was tested at 2 nM and 8 nM and sCT was not included. Calvaria were pretreated with PTH for 19.75 hours. BrdU (bromodeoxyuridine, final concentration 10 μM) was added to the growth media for the final 17.5 hours, to identify proliferating cells. The lack of toxicity of 850-0231 will be verified by quartitating the number of proliferating BudU cells in histological sections of the calvaria. Time points were taken at 4, 8, 11, 24.5, 48 and 77 hours. A Novo CRT 10+ electrolyte analyzer (Nova Biomedical) was used to analyze the time point samples.
At the final time point, visual observations were made and photos taken to note the extent of resorption, and migration from the calvarial cells as a measure of toxicity. Again, human calcitonin lost its inhibitory effect between hours 11 and 24 (Table 5). The calvaria treated with the mimetic at 5 and 10 μg/mL also lost inhibitory effect between 11 and 24 hours.

[3] = TPTX rats, co-administration with PTH, two days; cited from earlier work
[4] = test system: osteoclasts in PTH-treated mouse calvariae; assay: Calvaria histology: osteoclast number and size; assay type: cell-based; settings: PTH 1-34 treated mouse calvariae
Description: To confirm the findings in the calvarial bone resorption assay employing calcium release from culture mouse calvariae, selected bones were fixed in 10% neutral buffered formalin and demineralized in 5% formic acid with 5% formalin. The bones were dehydrated through an ascending series of ethanol concentrations, infiltrated in glycol methacrylate, and embedded using a JB-4 embedding kit (PolySciences, warrington, Pa.) (Liu et al., J. Bone Mineral Res. 5:973-82 (1990)). Cross sections of calvariae cut at 5 μm were obtained and stained for tartrate-resistant acid phosphatase (TRAP) activity and counterstained with merhyl green and thionin for cell morphology (Laiu et al., supra). Osteociasts were identified by TRAP stain, multinucleation, large cell size, and irregular cell shape. The number of osteoclasts were counted from endocranial and ectocranial bone surfaces and expressed as number/mm perimeter. The size of all the osteoclasts counted was also measured using a Bone Morphometry program (Liu et al., supra; Bain, et al., J. Bone Miner. Res. 8:435-42 (1993)). […]
Calcitonin mimetic compounds were evaluated in a similar fashion for their ability to suppress PTH-induced increases in osteoclast number and size. Cell toxicity (or death) was also evaluated by the appearance of pyknotic nuclei in a small number of bone cells. […]

Substance: salmon calcitonin
- hypocalcemic response (decrease in serum calcium) [1]: dose-dependent
- time after which inhibitory effect on resorption was lost (escape) ([2]; first assay, PTH 5 nM): approximately 24 hours
- Cumulative Total Calcium ([2]; first assay, PTH 5 nM, sCT 0.2 nM, 4 hours): 0.10 mg %
- Cumulative Total Calcium ([2]; first assay, PTH 5 nM, sCT 0.2 nM, 8 hours): 0.18 mg %
- Cumulative Total Calcium ([2]; first assay, PTH 5 nM, sCT 0.2 nM, 11 hours): 0.34 mg %
- Cumulative Total Calcium ([2]; first assay, PTH 5 nM, sCT 0.2 nM, 24 hours): 1.76 mg %
- Cumulative Total Calcium ([2]; first assay, PTH 5 nM, sCT 0.2 nM, 50.5 hours): 6.12 mg %
- Cumulative Total Calcium ([2]; first assay, PTH 5 nM, sCT 0.2 nM, 72.5 hours): 9.88 mg %
- Cumulative Total Calcium ([2]; first assay, PTH 5 nM, sCT 0.2 nM, 98 hours): 13.22 mg %
- visual observation of the calvaria (resorption) ([2]; first assay): less resorption
- Cumulative Total Calcium ([2]; second assay, PTH 5 nM, sCT 1 nM, 4 hours): −0.02 mg %
- Cumulative Total Calcium ([2]; second assay, PTH 5 nM, sCT 1 nM, 8 hours): −0.16 mg %
- Cumulative Total Calcium ([2]; second assay, PTH 5 nM, sCT 1 nM, 12 hours): −0.20 mg %
- Cumulative Total Calcium ([2]; second assay, PTH 5 nM, sCT 1 nM, 16 hours): 0.08 mg %
- Cumulative Total Calcium ([2]; second assay, PTH 5 nM, sCT 1 nM, 24 hours): 0.92 mg %
- Cumulative Total Calcium ([2]; second assay, PTH 5 nM, sCT 1 nM, 49 hours): 6.02 mg %
- Cumulative Total Calcium ([2]; second assay, PTH 5 nM, sCT 1 nM, 73 hours): 11.56 mg %
- PTH-induced serum, bone and kidney changes [3]: attenuated

Substance: human calcitonin
- PTH-induced increase in number and size of osteoclasts [4]: suppressed
- time after which inhibitory effect on resorption was lost (escape) ([2]; first assay, PTH 5 nM): approximately 24 hours
- Cumulative Total Calcium ([2]; first assay, PTH 5 nM, hCT 10 nM, 4 hours): 0.02 mg %
- Cumulative Total Calcium ([2]; first assay, PTH 5 nM, hCT 10 nM, 8 hours): 0.02 mg %
- Cumulative Total Calcium ([2]; first assay, PTH 5 nM, hCT 10 nM, 11 hours): −0.02 mg %
- Cumulative Total Calcium ([2]; first assay, PTH 5 nM, hCT 10 nM, 24 hours): 0.98 mg %
- Cumulative Total Calcium ([2]; first assay, PTH 5 nM, hCT 10 nM, 50.5 hours): 4.96 mg %
- Cumulative Total Calcium ([2]; first assay, PTH 5 nM, hCT 10 nM, 72.5 hours): 8.24 mg %
- Cumulative Total Calcium ([2]; first assay, PTH 5 nM, hCT 10 nM, 98 hours): 12.26 mg %
- visual observation of the calvaria (resorption) ([2]; first assay): less resorption
- Cumulative Total Calcium ([2]; second assay, PTH 5 nM, hCT 10 nM, 4 hours): 0.10 mg %
- Cumulative Total Calcium ([2]; second assay, PTH 5 nM, hCT 10 nM, 8 hours): −0.04 mg %
- Cumulative Total Calcium ([2]; second assay, PTH 5 nM, hCT 10 nM, 12 hours): −0.06 mg %
- Cumulative Total Calcium ([2]; second assay, PTH 5 nM, hCT 10 nM, 16 hours): 0.12 mg %
- Cumulative Total Calcium ([2]; second assay, PTH 5 nM, hCT 10 nM, 24 hours): 0.92 mg %
- Cumulative Total Calcium ([2]; second assay, PTH 5 nM, hCT 10 nM, 49 hours): 5.70 mg %
- Cumulative Total Calcium ([2]; second assay, PTH 5 nM, hCT 10 nM, 73 hours): 10.60 mg %
- Cumulative Total Calcium ([2]; third assay, PTH 10 nM, hCT 2 nM, 4 hours): 0.01 mg %
- Cumulative Total Calcium ([2]; third assay, PTH 10 nM, hCT 2 nM, 8 hours): 0.10 mg %
- Cumulative Total Calcium ([2]; third assay, PTH 10 nM, hCT 2 nM, 11 hours): 0.10 mg %
- Cumulative Total Calcium ([2]; third assay, PTH 10 nM, hCT 2 nM, 24.5 hours): 1.22 mg %
- Cumulative Total Calcium ([2]; third assay, PTH 10 nM, hCT 2 nM, 48 hours): 4.88 mg %
- Cumulative Total Calcium ([2]; third assay, PTH 10 nM, hCT 2 nM, 77 hours): 9.55 mg %
- Cumulative Total Calcium ([2]; third assay, PTH 10 nM, hCT 8 nM, 4 hours): 0.08 mg %
- Cumulative Total Calcium ([2]; third assay, PTH 10 nM, hCT 8 nM, 8 hours): 0.24 mg %
- Cumulative Total Calcium ([2]; third assay, PTH 10 nM, hCT 8 nM, 11 hours): 0.27 mg %
- Cumulative Total Calcium ([2]; third assay, PTH 10 nM, hCT 8 nM, 24.5 hours): 1.45 mg %
- Cumulative Total Calcium ([2]; third assay, PTH 10 nM, hCT 8 nM, 48 hours): 4.60 mg %
- Cumulative Total Calcium ([2]; third assay, PTH 10 nM, hCT 8 nM, 77 hours): 9.74 mg %
